Experimental data taken from article PMC9496346, “Controversial Role of Transferrin in the Transport of Ruthenium Anticancer Drugs” (Biomolecules, 2022).

Experiments:
HepG2 cells = test: Cellular Ru uptake by HepG2 cells (ICP-MS); assay type: cell-based, human; settings: HepG2, 60 μM Ru, 24 h; B2 vs B1
Procedure: Human hepatoma (HepG2) cells were originally received from the American Type Culture Collection (ATCC, Cat. No. HB-8065) and cultured as described previously. This cell line was used for Tf-dependent metal uptake studies because of the high expression levels of human TfR1 [43]. For treatments, the cells were grown to confluence in 24-well plates, using Advanced DMEM (Dulbecco’s modified Eagle’s minimal essential medium, Invitrogen Cat. No. 12491-015), supplemented with L-glutamine (2.0 mM), antibiotic-antimycotic mixture (100 mg mL^−1 penicillin, 100 mg mL^−1 steptomycin and 0.25 mg mL^−1 amphotericin B) and fetal calf serum (heat-inactivated, 2% v/v). Confluent cell layers were washed with serum-free treatment medium (DMEM, Invitrogen Cat. No. 19938-025), supplemented with glutamine, antibiotic-antimycotic mixture and 1.0 mg mL^−1 AlbuMax (Gibco Cat. No. 11020-021). […] After washing, the wells were filled with the treatment medium containing metal additions (detailed in B1–B9 of Table 1). The treatment media were sterilized by filtration through 0.2 µm membrane filters, and pre-equilibrated for 24 h at 310 K and 5% CO2 prior to the addition to cells, except for sample B1 that was used immediately after preparation. All the treatments were performed in triplicate, using random well positions to avoid experimental bias.
After 24 h incubation with the treatment media (B1–B9 in Table 1), the medium from each well was collected for the determination of Ru–protein binding and BLI analyses, and the wells were washed twice with PBS (0.50 mL/well). […]
The values of metal uptake were normalized using protein content in cell lysates. For protein determination, Bradford reagent (Sigma Cat. No B6916; 98 µL) was mixed with a small aliquot (2.0 µL) of each cell lysate, and the absorbance at 600 nm was measured using a Victor V3 plate reader. […] The test and calibration samples were analyzed in triplicate. […]

[1] = tested on: protein in cell culture medium; test: Ru–protein binding in cell culture medium (gel filtration, GFAAS); assay type: in vitro ADME; settings: basal medium with ~15 μM BSA, conditions B1 and B2
Procedure: An aliquot (50 µL) of cell culture medium from each well was passed through a separate Bio-Rad P6 centrifugal gel filtration column that was pre-saturated with PBS, according to manufacturer’s instructions. The eluants (50 ± 5 µL volume) contained protein-bound Ru fractions (>6 kDa molecular mass). The protein recovery, measured by Bradford assays, exceeded 95%. Another 50 µL sample of each medium was taken into separate tubes. Both the original and gel-filtered media samples were digested with 0.20 mL of 65% (v/v) HNO3 for 24 h. The digests were diluted with 0.75 mL of 0.10 M HCl, and the Ru content in the samples was determined by GFAAS. The percentage of protein binding was determined from the ratio of Ru content in the gel-filtered and original media samples [30, 31].

[2] = tested on: T1, recombinant human transferrin receptor 1 (TfR1); test: BLI of Tf–TfR1 binding in dilute human serum pre-treated with metal complexes; settings: serum incubated with 100 μM Ru complex or 60 μM Fe(III) as citrate
T1 construct: extracellular domain (Cyst89-Phe760), (His)6-tagged at the N-terminus; purchased Sino Biological, Beijing, China (TfR1); Sigma (human serum, Cat. No. H4522, as source of Tf) 11020-H07H
Procedure: The effects of Ru complexes on the Tf cycle were determined by BLI using previously developed protocols. The instrument used was a single-channel BLItz analyser (ForteBio, Menlo Park, CA, USA) with a tube holder (250 µL solution volume) and Ni(II)–nta coated optical probes held at 295 ± 1 K. Measurements used the Advanced Kinetics mode. […] Solutions of metal–Tf adducts (typical final Tf concentrations 150 nM or 1.0 µM) were prepared in the binding buffer (Section 2.1). The pH 7.4 binding buffer was used for Tf binding and dissociation from the probe, and the pH 5.6 buffer (Section 2.1) was used to mimic the endosomal step of the Tf cycle. Metal–Tf solutions (A1–A9 in Table 1) were diluted 100–400-fold, cell culture media were diluted 30-fold, and human serum samples were diluted 200-fold with the binding buffer immediately before the BLI measurements. All BLI data were background corrected by using data from buffer only runs with the same TfR1-loaded optical probe. Consistent BLI results were obtained in at least two independent measurements, using different probes and different batches of Tf solutions. Calculations of the Tf–TfR1 binding constants were performed using the 1:1 binding model (BLItz software, Version 1.1, Forte-Bio 2013), which can be used as a reasonable approximation of the physiological 2:2 Tf–TfR1 binding mechanism at low Tf concentrations. […]
(b) BLI response curves for dilute human serum samples in the presence or absence of metal complexes. Intact commercial human serum (Sigma H4522) was incubated with Fe(III)-citrate (60 µM) or with Ru complexes (100 µM) for 4 h at 310 K, then diluted 200-fold (to [Tf] ~ 150 nM) with the binding buffer (20 mM HEPES, 25 mM NaHCO3, 140 mM NaCl, pH = 7.4), and analyzed with the TfR1-loaded BLI probe. Designations of the steps in Tf cycle (A–D) correspond to those in Figure 1d-f, main text. Calculated KD values (1:1 binding model, BLItz software) were as follows: 8.0 nM (serum + Fe(III) citrate); or 28 ± 2 nM (serum in the presence or absence of Ru complexes). Typical anticancer Ru complexes, NAMI-A, KP1019 and RAPTA-C, were synthesized and characterized previously in the Lay group.
(1 picture or pasted object on this page, not shown here)

**Q.** What does the source list for [Cl-].[Cl-].[Cl-].[Cl-].[Ru+3].c1ccc2[nH][nH+]cc2c1.c1ccc2[nH]ncc2c1.c1ccc2[nH]ncc2c1 [KP1019, (IndH)[Ru^IIICl4(Ind)2]]?
**A.** Decrease in Ru uptake after decomposition in cell culture medium for 24 h prior to addition to cells, vs fresh solution (HepG2 cells): ~ 30 fold; Protein-bound proportion of KP1019 decomposition products in basal medium [1]: ~ 50%; Effect on Tf–TfR1 binding in whole human serum [2]: did not have any effect
